Measurements: patent publication US12320799B2, “Methods of measuring signaling pathway activity for selection of therapeutic agents” (Celcuity Inc., priority 2017, dated 2025)

Key:
Assay type in all cases: cell-based, human
ALK signaling pathway = assay: CELx multiple pathway test, impedance biosensor cell adhesion, FAM150A/Ceritinib pair; details: activator FAM150A
Description: (§1) Biosensor and transducer: A 96-well impendence E-Plate (ACEA, San Diego, CA) was placed onto an xCELLigence RTCA MP Station impendence biosensor (ACEA, San Diego, CA). The biosensor measured simultaneously the impedance of every well. The change in impedance for a particular well is proportional to the number of cells and type of attachment the cells have with the impedance microplate. Changes in impedance indicate a response to perturbation of these small cell populations. Coatings: The 96-E-Plate were wells were coated with fibronectin and or collagen. Collagen is purchased from Advanced BioMatrix (Carlsbad, CA) and fibronectin from Sigma-Aldrich (St. Louis, MO). Tissue and cell samples: A total of 18 samples of human tumor cells from breast, lung, colon, ovarian, kidney, bladder cancer were studied. For each of these six different cancer types, tumor cell samples from three different patients were tested. Any biomarkers that are used to guide selection of targeted therapy are listed in Table 18 for each patient if they were present. Signaling Pathways activator agent and targeted therapeutic pairs: Eleven different signaling pathways were studied in each human tumor cell sample using […] signaling pathway activator agent and targeted therapeutic pairs. Each of the signaling pathway activator agent and targeted therapeutic pairs affect the same signaling pathway. Each of the signaling pathway activator agents is a well-characterized and specific agonist of its associated signaling pathway and each of the targeted therapeutic agents is a well-characterized and specific antagonist of the same associated signaling pathway. The signaling pathway activator agents and targeted therapeutics used to characterize the activity level of the associated signaling pathway are summarized in Table 16 below:
(§2) Other Reagents: Standard media antibiotics (e.g. penicillin, streptomycin) and other buffers were purchased and used as delivered from ATCC (Manassas, VA, USA) or Life Technologies (Grand Island, NY). Procedure: For each test of a patient cell sample with a pair of signaling pathway activator and targeted therapeutic agents, six wells were seeded with approximately 15,000 cells in 120 uL culture media. Twenty microliters of the targeted therapeutic agent were added to two wells of each patient's cells and 20 microliters of standard media were added to the other four wells for each patient 18 hours in advance of addition of the signaling pathway activator agent. Signaling pathway stimulation was initiated with the addition of 20 ul of the signaling pathway activator agent in the two wells that received a targeted therapeutic agent and in two additional wells for each patient's set of cells without the targeted therapeutic. The impedance recording of attachment and adhesion change was performed at 37° C., 5% C02. Data was recorded on a continuous basis throughout the test, where the data presented is from the initial baseline level of cell attachment compared to the subsequent effects following the targeted therapeutic agent and the signaling pathway activator agent additions on the 18 different patient samples.
(§3) For each of the 18 patient samples, up to 11 different signaling pathways were tested. The output value represents the difference between the amount of cell adhesion change resulting from addition of the signaling pathway activator agent and the amount of cell adhesion change resulting from addition of the targeted therapeutic agent.

[1] = tested on: HER2/HER3 signaling pathway; assay: CELx multiple pathway test, impedance biosensor cell adhesion, NRG1/Pertuzumab pair; details: activator NRG1
Description: as §1, §2, §3

[2] = tested on: HER2/HER1 signaling pathway; assay: CELx multiple pathway test, impedance biosensor cell adhesion, EGF/Pertuzumab pair; details: activator EGF
Description: as §1
as §2, with “samples. Results:” for “samples.”
as §3, with “Table 17 presents the results, expressed as an output value, for each of the 167 tests performed using the methods described above. For” for “For”

HER2 signaling pathway = assay: CELx multiple pathway test, impedance biosensor cell adhesion, Pertuzumab; details: no activator listed
Description: as §1
as §2, with “samples. Results:” for “samples.”
as §3, with “Table 17 presents the results, expressed as an output value, for each of the 167 tests performed using the methods described above. For” for “For”

[3] = tested on: HER1, HER3 and c-Met pathways; assay: CELx test of multiple pathways simultaneously (EGF, NRG1, HGF in combination), impedance biosensor
Description: Biosensor and transducer: A 96-well impendence E-Plate (ACEA, San Diego, CA) was placed onto an xCELLigence RTCA MP Station impendence biosensor (ACEA, San Diego, CA). The biosensor measured simultaneously the impedance of every well. The change in impedance for a particular well is proportional to the number of cells and type of attachment the cells have with the impedance microplate. Changes in impedance indicate a response to perturbation of these small cell populations. Coatings: The 96-E-Plate were wells were coated with fibronectin and or collagen. Collagen is purchased from Advanced BioMatrix (Carlsbad, CA) and fibronectin from Sigma-Aldrich (St. Louis, MO). Tissue and cell samples: Six samples of human tumor cells from breast cancer were studied (C1815, C1596, C1838, C135, C42, C264). Any biomarkers that are used to guide selection of targeted therapy are listed in Table 22 for each patient if they were present. Signaling Pathways activator agent and targeted therapeutic pairs: In each human tumor cell sample, gross signaling activity of the HER1, HER3 and c-Met pathways initiated by three activator agents (EGF, NRG1, HGF) in combination was quantified. […] Each of the signaling pathway activator agents is a well-characterized and specific agonist of its associated signaling pathway. […] The fifth targeted therapeutic tested, taselisib, is an inhibitor that binds to PI3k, which downstream of the HER family and c-Met receptors. Other Reagents: Standard media, antibiotics (e.g. penicillin, streptomycin), and other buffers were purchased and used as delivered from ATCC (Manassas, VA, USA) or Life Technologies (Grand Island, NY). Procedure:
For each test of a patient cell sample with a signaling pathway activator(s) and targeted therapeutic agent(s), six or eight wells were seeded with approximately 15,000 cells in 120 uL culture media; six wells were seeded when only a single drug was evaluated and eight wells were seeded when two drugs were evaluated. When only a single drug was evaluated, 20 uL of the targeted therapeutic agent was added to two wells of each patient's cells and the final concentration of the therapeutic agent in the two wells with the single therapeutic agent was 500 nanomolar. When two therapeutic agents were evaluated, two wells of patient cells received 20 uL of the combined therapeutic agents at a concentration of 500 nanomolar each and an additional two wells of patient cells received 20 uL of the combined therapeutic agents at a concentration of 50 nanomolar each. Twenty microliters of standard media were added to the other four wells for each patient 18 hours in advance of addition of the signaling pathway activator agent(s). Signaling pathway stimulation was initiated with the addition of 20 ul of the signaling pathway activator agent(s) in the two or four wells that received a targeted therapeutic agent(s) and two additional wells for each patient's set of cells. The impedance recording of attachment and adhesion change was performed at 37° C., 5% CO2. Data was recorded on a continuous basis throughout the test, where the data presented if from the initial baseline level of cell attachment compared to the subsequent effects following the targeted therapeutic agent(s) and the signaling pathway activator agent(s) additions on the nine different patient samples.
as §3, with “six” for “18”, “three” for “up to 11”, “pathways (HER1, HER3, c-Met)” for “pathways”, “activated simultaneously.” for “tested.”, “agent(s)” for “agent”, “agent(s).” for “agent.”

Axl signaling pathway = assay: CELx multiple pathway test, impedance biosensor cell adhesion, Gas6/R428 (BGB324) pair; details: activator Gas6
Description: as §1, §2, §3

## Cc1cc(Nc2ncc(Cl)c(Nc3ccccc3S(=O)(=O)C(C)C)n2)c(OC(C)C)cc1C1CCNCC1 [Ceritinib]
ALK signaling pathway; C2 breast tumor cells
  output value: 5
ALK signaling pathway; C21 breast tumor cells
  output value: 10
ALK signaling pathway; C23 lung tumor cells
  output value: 16
ALK signaling pathway; C24 lung tumor cells
  output value: 2
ALK signaling pathway; C25 lung tumor cells
  output value: 8
ALK signaling pathway; C34 breast tumor cells
  output value: 15
ALK signaling pathway; C54 ovarian tumor cells
  output value: 14
ALK signaling pathway; C69 ovarian tumor cells
  output value: 16
ALK signaling pathway; C77 ovarian tumor cells
  output value: 37

## Pertuzumab
[1]; C2 breast tumor cells
  output value: 426
[1]; C21 breast tumor cells
  output value: −48
[1]; C23 lung tumor cells
  output value: 61
[1]; C24 lung tumor cells
  output value: 13
[1]; C25 lung tumor cells
  output value: 9
[1]; C54 ovarian tumor cells
  output value: 356
[1]; C62 colorectal tumor cells
  output value: 24
[1]; C71 colorectal tumor cells
  output value: 175
[1]; C72 colorectal tumor cells
  output value: 21
[1]; C77 ovarian tumor cells
  output value: 294
[1]; C81 bladder tumor cells
  output value: 4
[1]; C82 bladder tumor cells
  output value: 5
[1]; C87 bladder tumor cells
  output value: 477
[1]; C88 kidney tumor cells
  output value: 46
[1]; C90 kidney tumor cells
  output value: −3
[1]; C92 kidney tumor cells
  output value: −20
[2]; C2 breast tumor cells
  output value: 28
[2]; C21 breast tumor cells
  output value: 40
[2]; C23 lung tumor cells
  output value: −6
[2]; C24 lung tumor cells
  output value: 54
[2]; C25 lung tumor cells
  output value: 38
[2]; C34 breast tumor cells
  output value: −176
[2]; C54 ovarian tumor cells
  output value: 180
[2]; C62 colorectal tumor cells
  output value: 0
[2]; C69 ovarian tumor cells
  output value: −115
[2]; C71 colorectal tumor cells
  output value: −10
[2]; C72 colorectal tumor cells
  output value: 0
[2]; C77 ovarian tumor cells
  output value: 67
[2]; C81 bladder tumor cells
  output value: 1
[2]; C82 bladder tumor cells
  output value: 1
[2]; C87 bladder tumor cells
  output value: 46
[2]; C88 kidney tumor cells
  output value: −24
[2]; C90 kidney tumor cells
  output value: 35
[2]; C92 kidney tumor cells
  output value: 3
HER2 signaling pathway; C2 breast tumor cells
  output value: 454
HER2 signaling pathway; C21 breast tumor cells
  output value: −9
HER2 signaling pathway; C23 lung tumor cells
  output value: −55
HER2 signaling pathway; C24 lung tumor cells
  output value: 66
HER2 signaling pathway; C25 lung tumor cells
  output value: 47
HER2 signaling pathway; C34 breast tumor cells
  output value: −90
HER2 signaling pathway; C54 ovarian tumor cells
  output value: 537
HER2 signaling pathway; C62 colorectal tumor cells
  output value: 24
HER2 signaling pathway; C69 ovarian tumor cells
  output value: −20
HER2 signaling pathway; C71 colorectal tumor cells
  output value: 165
HER2 signaling pathway; C72 colorectal tumor cells
  output value: 21
HER2 signaling pathway; C77 ovarian tumor cells
  output value: 361
HER2 signaling pathway; C81 bladder tumor cells
  output value: 5
HER2 signaling pathway; C82 bladder tumor cells
  output value: 6
HER2 signaling pathway; C87 bladder tumor cells
  output value: 523
HER2 signaling pathway; C88 kidney tumor cells
  output value: 16
HER2 signaling pathway; C90 kidney tumor cells
  output value: 32
HER2 signaling pathway; C92 kidney tumor cells
  output value: 23

## Cc1nc(-c2cn3c(n2)-c2ccc(-c4cnn(C(C)(C)C(N)=O)c4)cc2OCC3)n(C(C)C)n1 [taselisib]
[3]; breast cancer patient sample C42, agent(s) 500 nM each
  Output value (cell adhesion change, activator agents minus targeted therapeutic agent(s)): 246
[3]; breast cancer patient sample C135, agent(s) 500 nM each
  Output value (cell adhesion change, activator agents minus targeted therapeutic agent(s)): 583
[3]; breast cancer patient sample C264, agent(s) 500 nM each
  Output value (cell adhesion change, activator agents minus targeted therapeutic agent(s)): 276
[3]; breast cancer patient sample C1596, agent(s) 500 nM each
  Output value (cell adhesion change, activator agents minus targeted therapeutic agent(s)): 242
[3]; breast cancer patient sample C1815, agent(s) 500 nM each
  Output value (cell adhesion change, activator agents minus targeted therapeutic agent(s)): 385
[3]; breast cancer patient sample C1838, agent(s) 500 nM each
  Output value (cell adhesion change, activator agents minus targeted therapeutic agent(s)): 271

## Nc1nc(Nc2ccc3c(c2)CC[C@@H](N2CCCC2)CC3)nn1-c1cc2c(nn1)-c1ccccc1CCC2 [R428 (BGB324)]
Axl signaling pathway; C2 breast tumor cells
  output value: 5
Axl signaling pathway; C21 breast tumor cells
  output value: 6
Axl signaling pathway; C23 lung tumor cells
  output value: 24
Axl signaling pathway; C24 lung tumor cells
  output value: 7
Axl signaling pathway; C25 lung tumor cells
  output value: 30
Axl signaling pathway; C34 breast tumor cells
  output value: 44
Axl signaling pathway; C54 ovarian tumor cells
  output value: 12
Axl signaling pathway; C69 ovarian tumor cells
  output value: 10
Axl signaling pathway; C77 ovarian tumor cells
  output value: 5
